{"source": "ChEMBL document CHEMBL2046371", "about": "“Synthesis and study of cyclic pronucleotides of 5-fluoro-2'-deoxyuridine” (Bioorg Med Chem Lett, 2012)", "key": {"A2780": {"test_system": "A2780", "test": "Cytotoxicity against human A2780 cells after 5 days by MTT assay", "assay_type": "functional, cell-based", "conditions": "A2780, 120 h"}, "[1]": {"test": "Cytotoxicity against thymidine kinase-deficient mouse LMTK cells after 5 days by MTT assay", "assay_type": "cell-based", "conditions": "L-M(TK-), 120 h"}}}
{"smiles": "COC(=O)[C@H](C)N[P@]1(=O)OC[C@H]2O[C@@H](n3cc(F)c(=O)[nH]c3=O)C[C@@H]2O1", "values": [{"measurement": "IC50", "setting": "A2780", "result": 1400, "unit": "nM"}, {"measurement": "IC50", "setting": "[1]", "result": 60.7, "unit": "µM"}]}
{"smiles": "COC(=O)[C@H](C)N[P@@]1(=O)OC[C@H]2O[C@@H](n3cc(F)c(=O)[nH]c3=O)C[C@@H]2O1", "values": [{"measurement": "IC50", "setting": "A2780", "result": 1400, "unit": "nM"}, {"measurement": "IC50", "setting": "[1]", "result": 12.7, "unit": "µM"}]}
{"smiles": "COC(=O)CNP1(=O)OC[C@H]2O[C@@H](n3cc(F)c(=O)[nH]c3=O)C[C@@H]2O1", "note": "(stereo not given in full)", "values": [{"measurement": "IC50", "setting": "A2780", "result": 550, "unit": "nM"}, {"measurement": "IC50", "setting": "[1]", "result": 141, "unit": "µM"}]}
{"smiles": "COC(=O)[C@H](C)NP(=O)(OC[C@H]1O[C@@H](n2cc(F)c(=O)[nH]c2=O)C[C@@H]1O)Oc1ccccc1", "note": "(stereo not given in full)", "values": [{"measurement": "IC50", "setting": "A2780", "result": 2400, "unit": "nM"}, {"measurement": "IC50", "setting": "[1]", "result": 45.6, "unit": "µM"}]}
{"smiles": "O=c1[nH]c(=O)n([C@H]2C[C@H](O)[C@@H](CO)O2)cc1F", "note": "[FLOXURIDINE]", "values": [{"measurement": "IC50", "setting": "A2780", "result": 26, "unit": "nM"}, {"measurement": "IC50", "setting": "[1]", "result": 4.5, "unit": "µM"}]}
